Measurements taken from patent US8354246B2, “Non-MCCJ25-related lariat-peptide inhibitors of bacterial RNA polymerase” (priority 2006, dated 2013).
Bridge positions count the residues as written; N and C are the ends. Peptide text beside a SMILES is read from it.

Legend:
[1] = biological target: T1, Escherichia coli σ^70 RNAP holoenzyme (Escherichia coli, UniProt P0A8T7); experiment: fluorescence-detected abortive initiation assay; assay type: biochemical; settings: lacUV5-12 DNA fragment, 37° C.
T1 construct: purchased Epicentre, Inc
Procedure: (§1) Following incubation of reaction mixtures for 5 min at 22° C., 1 μl 1.1 μM DNA fragment lacUV5-12 (Mukhopadhyay et al. (2001) Cell 106, 453-463) was added. Following further incubation of reaction mixtures for […] at 37° C., 0.5 μl 1 mg/ml heparin (Sigma, Inc.; omitted in experiments with T. thermophilus RNAP) and 0.5 μl of 2.75 mM (γ-AmNS)UTP (Molecular Probes, Inc.) were added, and reaction mixtures were transferred to sub-micro fluorometer cuvettes (Starna Cells, Inc.). Following further incubation of reaction mixtures for 2 min at 37° C., RNA synthesis was initiated by addition of 2 μl 11 mM ApA (Sigma, Inc.), and fluorescence emission intensity was monitored for 5 min at 37° C. [excitation wavelength=360 nm and emission wavelength=500 nm; excitation and emission slit widths=4 nm; QuantaMaster QM1 spectrofluorometer (PTI, Inc.)]. The quantity of UMP incorporated into RNA was determined from the quantity of (γ-AmNS) UTP consumed, which, in turn, was calculated as follows (Schlageck et al. 1979): (γ-AmNS)UTPconsumed=[(γ-AmNS)UTP0](Ft−F0)/(12.4×F0) where (γ-AmNS)UTP0 is the quantity of (γ-AmNS)UTP at time 0, F0 is the fluorescence emission intensity at time 0, and Ft is the fluorescence emission intensity at time t.

[2] = biological target: T2, Thermus thermophilus σ^A RNAP holoenzyme (Thermus thermophilus, UniProt Q8RQE8); experiment: fluorescence-detected abortive initiation assay; assay type: biochemical; settings: lacUV5-12 DNA fragment, 37° C.
T2 construct: made in house
Procedure: as §1

[3] = test system: Thermus-Deinoccoccus bacterial RNAP; settings: Yuzenkova, et al. (2002); cited from earlier work
[4] = tested thermal and chemical denaturants; cited from earlier work
[5] = test system: Gram-positive bacterial RNAP; settings: Yuzenkova, et al. (2002); cited from earlier work
[6] = test system: mesophilic endo- and exopeptidease; settings: tested mesophilic endo- and exopeptidases; cited from earlier work

Row | Molecule | IC50 [1] | IC50 [2] | inhibition of Thermus-Deinoccoccus bacterial RNAP [3] | resistance to denaturation [4] | inhibition of Gram-positive bacterial RNAP [5] | resistance to proteolysis [6]
1 | C[C@@H](O)[C@@H]1NC(=O)CNC(=O)[C@H](Cc2c[nH]cn2)NC(=O)[C@H](Cc2c[nH]c3ccccc23)NC(=O)[C@H](CC(N)=O)NC(=O)CNC(=O)C[C@@H](C(=O)N[C@@H](Cc2c[nH]c3ccccc23)C(=O)N[C@@H](Cc2ccccc2)C(=O)N[C@@H](Cc2ccccc2)C(=O)N[C@@H](CC(N)=O)C(=O)N[C@@H](Cc2ccc(O)cc2)C(=O)N[C@@H](Cc2ccc(O)cc2)C(=O)N[C@@H](Cc2c[nH]c3ccccc23)C(=O)O)NC(=O)[C@@H]2CCCN2C(=O)[C@H](CO)NC1=O [RES-701-3] (GNWHGTSPDWFFNYYW-OH; lactam N-9; C-terminus assumed) | 20 µM | 2 µM |  |  |  | 
2 | CC[C@H](C)[C@H](NC(=O)[C@H](Cc1ccccc1)NC(=O)[C@@H](NC(=O)[C@H](Cc1cnc[nH]1)NC(=O)CNC(=O)CNC(=O)[C@H](Cc1ccccc1)NC(=O)[C@H](CC(C)C)NC(=O)[C@@H]1CC(=O)NCC(=O)N[C@@H](Cc2ccc(O)cc2)C(=O)N2CCC[C@H]2C(=O)N[C@@H](Cc2c[nH]c3ccccc23)C(=O)N[C@@H](Cc2c[nH]c3ccccc23)C(=O)N[C@@H](CC(=O)O)C(=O)N[C@@H](Cc2ccc(O)cc2)C(=O)N[C@@H](CCCNC(=N)N)C(=O)N1)[C@@H](C)O)C(=O)N[C@@H](CO)C(=O)N1CCC[C@H]1C(=O)O [propeptin] (GYPWWDYRDLFGGHTFISP-OH; lactam N-9) | 30 µM | 5 µM |  |  |  | 
3 | Gly1-Gly2-Ala3-Gly4-His5-Pro6-Val7-Glu8-Tyr9-Phe10-Val11-Gly12-Ile13-Gly14-Thr15-Pro16-Ile17-Ser18-Phe19-Tyr20-Gly21 cyclic(8→1) peptide [MccJ25] |  |  | does not inhibit | complete resistance to tested thermal and chemical denaturants | does not inhibit | complete resistance to tested mesophilic endo- and exopeptidease
